Five molecules from patent US20260007681A1, “INDOLE DERIVATIVES AS ESTROGEN RECEPTOR DEGRADERS” (REGENTS OF THE UNIVERSITY OF MICHIGAN, priority 2022, published 2026) can be followed below.

For one test, the target named is ER in MCF-7 cells (Homo sapiens (Human), UniProt P03372). Briefly: In-cell western (ICW) ER degradation assay in MCF-7 cells (Compounds A1-A70). The test is classed as cell-based. The settings on record: for DC50: ER degradation, 0.02 to 300 nM, read-out: MCF7 ICW DC50.
The target of another test is ERα_LBD(GST) (Homo sapiens (Human), UniProt P03372). Briefly: IC50 measurements for binding to ERα_LBD (GST), LanthaScreen TR-FRET ERα competitive binding assay. The conditions noted are these: 4 nM ERα_LBD(GST), 3 nM Fluormone ES2 Green tracer, 60 min; read-out: ERα HTRF IC50. The method, then:
• 1. ERα_LBD(GST) protein: 4 nM • 2. Tb Anti-GST: 2 nM • 3. Fluormone ES2 Green tracer: 3 nM • 4. Incubation time: 60 min • 5. DMSO: 1% • 6. Assay buffer: Adding 1M DTT to Nuclear receptor Buffer K for final 5 mM DTT. • 7. ZPE: 1% DMSO • 8. HPE: 1 μM ARV_471 • 9. LanthaScreen® TR-FRET ERα Competitive Binding Assay (ThermoFisher, #A15887)
• 1) Cherry pick 2 μL 10 mM compound stock to column 1 of a 384 intermediate plate • 2) Add 18 μL DMSO to column 1 to dilute compound to 1 mM. • 3) Transfer 10 μL 1 mM compound to column 1 of a LDV plate. • 4) Add 6 μl DMSO to column 2-10 of the LDV plate. • 5) Compounds undergo 3-fold serial dilution (3 μL+6 μL) in DMSO. • 6) Transfer 120 nL compound solution to assay plate. • ZPE: 120 nL 100% DMSO
Prepare complete nuclear receptor buffer K by adding 1 M DTT to nuclear receptor buffer K for a final concentration of 5 mM DTT. Complete nuclear receptor buffer K must be prepared fresh daily. Prepare 2X protein solution using complete nuclear receptor buffer K containing 8 nM ERα_LBD(GST) and 4 nM Tb Anti-GST. Then, prepare 2× Fluormone ES2 Green tracer (6 nM) using complete nuclear receptor buffer K. Add 6 μL 2× Fluormone ES2 green tracer into a compound plate (PerkinElmer 6008289) by dragonfly with one-tips-addition. Subsequently, add 6 μL 2× protein solution into the plate. Briefly and gently mix the 384-well plate on a plate shaker and incubate at room temperature protected from light for 60 min. The plate is sealed with a cover to minimize evaporation. Read the plate at wavelengths of 520 nm and 495 nm. Calculate the TR-FRET ratio by dividing the emission signal at 520 nm by the emission signal at 495 nm. Generate a binding curve by plotting the emission ratio vs. the log [ligand]. To determine the IC50 value, fit the data using XL-fit for a sigmoidal dose-response.

The next test concerns the target ER in T47D cells (Homo sapiens (Human), UniProt P03372). Briefly: In-cell western (ICW) ER degradation assay in T47D cells (Compounds A1-A70). The test is classed as cell-based. The conditions noted are these: for DC50: ER degradation, 0.02 to 300 nM; for Dmax: T47D, read-out: T47D ICW Dmax (%).
A further test concerns the target CRBN/DDB1 (Homo sapiens (Human), UniProt Q96SW2). The test is classed as binding. The settings on record: His tagged CRBN+DDB-DLS7+CXU4, Cy5-labeled Thalidomide probe, one hour incubation; read-out: CRBN HTRF IC50. How it is done: The binding potency was determined using H-TRF assay technology (Perkin Elmer). Compounds were serially diluted in DMSO and 0.2 μL volume was transferred to white 384-well plate.

The mark [1] stands for this setting: MCF7, read-out: MCF7 ICW Dmax (%).
[2] abbreviates: maximal ER degradation, T47D cells, 16 hrs treatment.
[3] abbreviates: MCF7, maximal ER degradation, MCF-7 cells, 16 hrs treatment, read-out: MCF7 ICW Dmax (%).

Structures can show the parent of a compound that is named as a salt. Where two headings read alike, the source gives them in different places.

Chain of ER in MCF-7 cells (P03372 whole entry): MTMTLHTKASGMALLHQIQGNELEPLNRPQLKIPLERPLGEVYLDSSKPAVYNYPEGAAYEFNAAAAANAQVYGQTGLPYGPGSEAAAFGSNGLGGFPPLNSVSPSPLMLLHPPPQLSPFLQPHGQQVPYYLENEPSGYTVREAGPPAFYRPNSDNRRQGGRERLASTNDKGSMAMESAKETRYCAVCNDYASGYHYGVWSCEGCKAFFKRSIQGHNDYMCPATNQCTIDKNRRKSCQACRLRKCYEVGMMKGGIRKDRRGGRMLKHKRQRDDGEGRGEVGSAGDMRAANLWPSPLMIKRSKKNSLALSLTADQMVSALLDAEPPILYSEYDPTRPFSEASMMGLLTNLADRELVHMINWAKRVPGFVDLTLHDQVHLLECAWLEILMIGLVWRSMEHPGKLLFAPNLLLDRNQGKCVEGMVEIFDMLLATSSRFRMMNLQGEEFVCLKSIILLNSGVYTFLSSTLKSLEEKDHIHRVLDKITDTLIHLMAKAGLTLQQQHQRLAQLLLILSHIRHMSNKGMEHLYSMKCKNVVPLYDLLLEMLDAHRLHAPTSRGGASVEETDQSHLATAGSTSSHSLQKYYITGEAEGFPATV
Chain of ER in T47D cells (P03372 whole entry): as above
Chain of ERα_LBD(GST) (P03372 311-547): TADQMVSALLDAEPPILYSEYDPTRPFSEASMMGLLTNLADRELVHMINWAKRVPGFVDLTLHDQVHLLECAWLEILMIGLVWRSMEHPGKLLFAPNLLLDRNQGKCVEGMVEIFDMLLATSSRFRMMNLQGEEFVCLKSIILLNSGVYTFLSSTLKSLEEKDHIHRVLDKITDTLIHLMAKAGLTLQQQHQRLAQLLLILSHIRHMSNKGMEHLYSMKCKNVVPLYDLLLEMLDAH
Chain of CRBN/DDB1 (Q96SW2 whole entry): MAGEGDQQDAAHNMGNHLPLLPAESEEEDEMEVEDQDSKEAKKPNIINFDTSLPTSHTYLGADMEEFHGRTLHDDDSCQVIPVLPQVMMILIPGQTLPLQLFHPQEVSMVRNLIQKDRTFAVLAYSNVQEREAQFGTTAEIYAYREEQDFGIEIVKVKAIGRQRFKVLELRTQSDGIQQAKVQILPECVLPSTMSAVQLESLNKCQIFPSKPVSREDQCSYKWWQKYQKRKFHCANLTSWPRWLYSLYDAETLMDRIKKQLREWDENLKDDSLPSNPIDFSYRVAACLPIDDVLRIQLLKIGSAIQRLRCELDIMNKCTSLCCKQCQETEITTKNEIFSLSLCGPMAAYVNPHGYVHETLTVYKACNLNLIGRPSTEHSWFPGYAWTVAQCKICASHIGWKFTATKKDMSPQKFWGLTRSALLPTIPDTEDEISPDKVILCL
Chain of CRBN/DDB1 (Q16531 whole entry partner): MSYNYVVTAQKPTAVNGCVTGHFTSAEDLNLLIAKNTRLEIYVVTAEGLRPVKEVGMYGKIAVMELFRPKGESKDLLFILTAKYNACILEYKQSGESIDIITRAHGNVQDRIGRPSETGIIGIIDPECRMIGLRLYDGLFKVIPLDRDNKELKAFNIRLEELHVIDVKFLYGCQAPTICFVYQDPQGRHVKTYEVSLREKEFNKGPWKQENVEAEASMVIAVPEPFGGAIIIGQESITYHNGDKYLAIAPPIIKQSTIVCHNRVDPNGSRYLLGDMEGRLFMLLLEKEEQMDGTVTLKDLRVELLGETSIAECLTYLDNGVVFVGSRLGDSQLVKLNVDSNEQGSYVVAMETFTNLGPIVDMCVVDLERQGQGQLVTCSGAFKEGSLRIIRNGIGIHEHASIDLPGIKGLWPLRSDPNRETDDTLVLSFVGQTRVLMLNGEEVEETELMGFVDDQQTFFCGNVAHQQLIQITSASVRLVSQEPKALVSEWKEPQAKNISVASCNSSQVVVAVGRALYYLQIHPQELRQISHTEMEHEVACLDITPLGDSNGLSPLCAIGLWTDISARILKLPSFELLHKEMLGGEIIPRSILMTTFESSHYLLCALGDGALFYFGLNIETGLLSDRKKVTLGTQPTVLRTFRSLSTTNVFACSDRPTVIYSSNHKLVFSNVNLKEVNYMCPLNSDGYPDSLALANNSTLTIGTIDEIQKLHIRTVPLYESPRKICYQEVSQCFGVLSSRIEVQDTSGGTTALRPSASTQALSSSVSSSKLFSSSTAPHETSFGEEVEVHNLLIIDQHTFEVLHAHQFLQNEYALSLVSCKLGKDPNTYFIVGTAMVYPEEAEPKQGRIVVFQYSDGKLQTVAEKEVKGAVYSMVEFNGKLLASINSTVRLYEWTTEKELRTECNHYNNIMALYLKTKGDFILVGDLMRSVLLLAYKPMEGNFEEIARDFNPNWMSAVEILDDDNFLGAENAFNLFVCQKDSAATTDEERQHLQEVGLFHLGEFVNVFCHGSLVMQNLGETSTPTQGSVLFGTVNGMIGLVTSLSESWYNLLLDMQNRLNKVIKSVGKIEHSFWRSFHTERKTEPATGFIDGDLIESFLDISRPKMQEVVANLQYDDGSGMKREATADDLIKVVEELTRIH

For the molecule `COc1cc(N2CCC(CN3CCN4c5ccc6c(c5OC[C@@H]4C3)CN([C@H]3CCC(=O)NC3=O)C6=O)CC2)ccc1[C@@H]1c2[nH]c3ccccc3c2C[C@@H](C)N1CC(F)F` [Compound A12, (S)-3-((S)-7-((1-(4-((1R,3R)-2-(2,2-difluoroethyl)-3-methyl-2,3,4,9-tetrahydro-1H-pyrido[3,4-b]indol-1-yl)-3-methoxyphenyl)piperidin-4-yl)methyl)-1-oxo-1,3,5,5a,6,7,8,9-octahydro-2H-pyrazino[1′,2′:4,5][1,4]oxazino[2,3-e]isoindol-2-yl)piperidine-2,6-dione], at ER in MCF-7 cells (MCF-7 cells, 16 hrs treatment), the DC50 is less than 1 nM. For the same molecule, the “MCF7 ICW Dmax (%)” value on ER in MCF-7 cells (maximal ER degradation, MCF-7 cells, 16 hrs treatment) was “B (“B”: >50% and <75%)”. Further, the IC50 at ERα_LBD(GST) is less than 10 nM.
Take `COc1cc(N2CCC(CN3CCN4c5ccc6c(c5OC[C@H]4C3)CN([C@H]3CCC(=O)NC3=O)C6=O)CC2)ccc1[C@@H]1c2[nH]c3ccccc3c2C[C@@H](C)N1CC(C)(C)F` [Compound A49, (S)-3-((R)-7-((1-(4-((1R,3R)-2-(2-fluoro-2-methylpropyl)-3-methyl-2,3,4,9-tetrahydro-1H-pyrido[3,4-b]indol-1-yl)-3-methoxyphenyl)piperidin-4-yl)methyl)-1-oxo-1,3,5,5a,6,7,8,9-octahydro-2H-pyrazino[1′,2′:4,5][1,4]oxazino[2,3-e]isoindol-2-yl)piperidine-2,6-dione]: the DC50 is less than 1 nM at ER in MCF-7 cells (MCF-7 cells, 16 hrs treatment) and less than 1 nM on ER in T47D cells (T47D cells, 16 hrs treatment). In addition, the results for the Dmax on ER in MCF-7 cells (setting [1]) and on ER in T47D cells were more than 75% and 50 to 75%, respectively. On ERα_LBD(GST), the IC50 was not below 10 nM.
For `C[C@H]1Cc2c([nH]c3ccccc23)[C@H](c2cnc(N3CCC4(CC3)C[C@@H](CN3CCN5c6ccc7c(c6OC[C@@H]5C3)CN([C@@H]3CCC(=O)NC3=O)C7=O)CO4)nc2)N1CC(F)F` [Compound A59, (R)-3-((S)-7-(((S)-8-(5-((1S,3S)-2-(2,2-difluoroethyl)-3-methyl-2,3,4,9-tetrahydro-1H-pyrido[3,4-b]indol-1-yl)pyrimidin-2-yl)-1-oxa-8-azaspiro[4.5]decan-3-yl)methyl)-1-oxo-1,3,5,5a,6,7,8,9-octahydro-2H-pyrazino[1′,2′:4,5][1,4]oxazino[2,3-e]isoindol-2-yl)piperidine-2,6-dione formate], the DC50 on ER in MCF-7 cells (MCF-7 cells, 16 hrs treatment) is less than 1 nM; on ER in T47D cells (T47D cells, 16 hrs treatment) it was less than 1 nM. For the same molecule, the Dmax at ER in MCF-7 cells (setting [1]) and at ER in T47D cells (setting [2]) was 50 to 75% in each case. Moreover, the IC50 on ERα_LBD(GST) was not below 10 nM.
On to `C[C@H]1Cc2c([nH]c3ccccc23)[C@H](c2cnc(N3CCC4(CC3)C[C@@H](CN3CCC(c5ccc(N[C@@H]6CCC(=O)NC6=O)cc5)CC3)CO4)nc2)N1CC(F)F` [Compound A66, (R)-3-((4-(1-(((S)-8-(5-((1S,3S)-2-(2,2-difluoroethyl)-3-methyl-2,3,4,9-tetrahydro-1H-pyrido[3,4-b]indol-1-yl)pyrimidin-2-yl)-1-oxa-8-azaspiro[4.5]decan-3-yl)methyl)piperidin-4-yl)phenyl)amino)piperidine-2,6-dione], for which the DC50 on ER in MCF-7 cells (MCF-7 cells, 16 hrs treatment) was less than 1 nM; on ER in T47D cells (T47D cells, 16 hrs treatment), 1 to 10 nM. Further, the results for the Dmax on ER in MCF-7 cells (setting [3]) and on ER in T47D cells (setting [2]) were 50 to 75% and more than 75%, respectively. On CRBN/DDB1, the IC50 is 50 to 500 nM.
Take `C[C@H]1Cc2c([nH]c3ccccc23)[C@H](c2cnc(N3CCC4(CC3)C[C@H](CN3CCC(c5ccc(N[C@H]6CCC(=O)NC6=O)cc5)CC3)CO4)nc2)N1CC(F)F` [Compound A67, (S)-3-((4-(1-(((R)-8-(5-((1S,3S)-2-(2,2-difluoroethyl)-3-methyl-2,3,4,9-tetrahydro-1H-pyrido[3,4-b]indol-1-yl)pyrimidin-2-yl)-1-oxa-8-azaspiro[4.5]decan-3-yl)methyl)piperidin-4-yl)phenyl)amino)piperidine-2,6-dione]: the DC50 on ER in MCF-7 cells (MCF-7 cells, 16 hrs treatment) is less than 1 nM; at ER in T47D cells (T47D cells, 16 hrs treatment) it was less than 1 nM. The maximal degradation (Dmax) on ER in MCF-7 cells (setting [3]) and on ER in T47D cells (setting [2]) was 50 to 75% each time. For the same molecule, the IC50 at CRBN/DDB1 is 500 to 5000 nM.
